Source: patent US10794932B2, “Biosensor for the detection of a biological target, and method for manufacturing the same” (The Governing Council of The University of Toronto, priority 2016, dated 2020)

Tests used:
TLR4 = test: TLR multiplex sensor, EIS film resistance before/after exposure (Example 5), TLR4 sensor; assay type: binding; details: exposure 20 minutes
Protocol: For each multiplex TLR sensor, 5 separate gold electrodes were used for binding TLR 1 to 5. The 5 modified electrodes/sensors were exposed to the analyte solution and evaluated one by one using potentiostats and electrochemical cells.
The preparation of each TLR biosensor was evaluated using EIS. It is understood that cyclic voltammetry as well as electrochemical impedance microscopy can also be used for monitoring the modification. […] Ethanolamine was then applied to deactivate unreacted LPA. Due to dissociation of unspecific absorbed TLR, the Rct dropped slightly. Experimental curves were evaluated using a model to obtain the Rct values, which can be seen at FIG. 9. Measurements from at least triplicated samples prepared were used to obtain statistic information.
The TLR1 sensor was exposed to an E. coli K12 whole-cell buffer solution for 20 minutes. The sensor was then removed, washed thoroughly and characterized in the electrochemical cell measuring the Rct again. The difference in Rct before and after exposure is the response triggered by the target. The same protocol was carried out for all remaining TLRs (TLRs 2-5) to obtain one set of pattern for E. coli K12 (FIGS. 10b to 10e). Multiple sets were investigated for statistical relevance. […]

'rmTLR1 and 2' mixture = molecular target: T1, 'rmTLR1 and 2' mixture (Mus musculus, UniProt Q9EPQ1+Q9QUN7); test: Label-free hybridized 'TLR1 and 2' sensor, EIS detection of Pam3CSK4 (Example 7); assay type: binding; details: for delta Rct % / Rct: 'TLR1 and 2' sensor; for delta Rct %: 20 minutes; for Rct: before immersion 5472
T1 construct: Fc (chimera); purchased R&D Systems RDS1476TR050 + RDS1530TR050
T1 sequence (Q9EPQ1 26-582 limits assumed): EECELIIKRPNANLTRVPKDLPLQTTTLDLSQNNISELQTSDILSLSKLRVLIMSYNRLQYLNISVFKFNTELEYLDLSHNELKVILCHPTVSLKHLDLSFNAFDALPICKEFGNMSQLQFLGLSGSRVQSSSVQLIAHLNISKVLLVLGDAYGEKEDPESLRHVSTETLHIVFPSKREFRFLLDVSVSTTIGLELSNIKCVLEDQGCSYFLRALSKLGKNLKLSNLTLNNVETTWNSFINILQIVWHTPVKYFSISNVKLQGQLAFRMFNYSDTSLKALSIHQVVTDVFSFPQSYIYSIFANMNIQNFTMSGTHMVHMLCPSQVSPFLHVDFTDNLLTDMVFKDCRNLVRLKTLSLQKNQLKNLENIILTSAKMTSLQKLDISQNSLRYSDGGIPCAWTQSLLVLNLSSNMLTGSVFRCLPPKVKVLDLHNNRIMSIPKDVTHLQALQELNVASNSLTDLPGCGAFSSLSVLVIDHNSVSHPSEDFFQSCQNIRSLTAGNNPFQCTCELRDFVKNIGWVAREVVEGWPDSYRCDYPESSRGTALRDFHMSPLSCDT
T1 sequence (Q9QUN7 25-587 limits assumed): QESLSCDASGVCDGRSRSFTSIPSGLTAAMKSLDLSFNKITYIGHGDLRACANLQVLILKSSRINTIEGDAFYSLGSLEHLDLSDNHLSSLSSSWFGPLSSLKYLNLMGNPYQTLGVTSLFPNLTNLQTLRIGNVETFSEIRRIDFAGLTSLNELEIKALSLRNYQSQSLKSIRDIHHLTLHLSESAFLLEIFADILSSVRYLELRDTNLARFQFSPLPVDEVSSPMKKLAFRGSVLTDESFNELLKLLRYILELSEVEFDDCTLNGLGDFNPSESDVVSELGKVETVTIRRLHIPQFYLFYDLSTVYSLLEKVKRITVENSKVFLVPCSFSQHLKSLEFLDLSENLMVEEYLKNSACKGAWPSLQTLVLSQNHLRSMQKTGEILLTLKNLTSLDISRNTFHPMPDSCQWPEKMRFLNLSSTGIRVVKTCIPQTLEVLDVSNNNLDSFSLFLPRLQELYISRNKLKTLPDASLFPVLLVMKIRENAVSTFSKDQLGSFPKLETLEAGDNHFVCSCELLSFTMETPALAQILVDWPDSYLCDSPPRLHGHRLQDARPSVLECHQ
Protocol: TLR sensors were prepared using fresh, cleaned gold electrodes. The electrodes were immersed in a 2 mM 1-lipoic acid n-hydroxysuccinimide ester (LPA) ethanol solution for 48 hours at 277 K. The electrodes were then rinsed thoroughly using absolute ethanol and blown dry under nitrogen before incubation in 200 μg/ml rmTLR1, 200 μg/ml rmTLR2 and 200 μg/ml ‘rmTLR1 and 2’ mixture for 72 hours at 277 K. The rmTLR1 and 2 mixture was prepared by mixing 200 μg/ml rmTLR1 and 200 μg/ml rmTLR2 with a volume ratio of 1:1. The final concentration of each component was 100 μg/ml and the total concentration of the combined TLR protein content was 200 μg/ml. Following the supplier's recommended conditions, all TLRs were prepared in PBS buffer (pH˜7.4). The electrodes were rinsed with an excess volume of Milli-Q water and blown dry under nitrogen. An ethanolamine-tris buffer solution was prepared by dissolving 1.2 g of ethanolamine and 0.121 g of Tris base in 20 mL of water, the pH was adjusted to 8.4 using hydrochloric acid. TLR-immobilized electrodes were incubated in the ethanolamine solution for one hour at room temperature in order to block any remaining unreacted LPA amine sites. The fabricated sensors with immobilized, standalone rmTLR3, rmTLR4/MD-2 and rmTLR5, used for the selectivity test, were prepared using the same protocol described above.
Pam3CSK4 was dissolved in 10 mM HEPES aqueous buffer at pH˜7.4. The blocked rmTLR biosensors were incubated in Pam3CSK4 at various concentrations for 20 minutes. The electrodes were always washed thoroughly with same HEPES buffer (pH˜7.4) after the incubation.
All electrochemical measurements were carried out using a cell with a three-electrode configuration in an enclosed Faraday cage. CV and EIS measurements were completed using a CHI-660b potentiostat (CH Instruments, Austin, Tex.). rmTLR-modified gold electrodes and platinum (Pt) wire were used as the working electrode and the counter electrode, respectively. A reference electrode (Ag/AgCl/3.0M KCl) and a salt bridge, filled with an agar and 1M KNO3 aqueous solution, were inserted to minimize the diffusion of chloride ions into the electrolyte solution. The agar solution was prepared by dissolving 2.0 grams of agar and 10.1 g KNOB in 100 mL of water. The CV and EIS electrolyte was made in a 10 mM HEPES aqueous buffer at pH˜7.4, which consisted of a 5 mM K4Fe(CN)6/5 mM K3Fe(CN)6 as a redox couple with 1M of NaClO4 as the supporting electrolyte. For consistency, the electrochemical measurements were carried out with open-circuit potentials. EIS experiments were conducted in the frequency range of 100,000 to 0.1 Hz with an amplitude of 5 mV. The experimental EIS curves were evaluated to determine the film resistance using ZSimpWin 2.0 software.

Substance: Pam3CSK4
- delta Rct % (TLR4): limited responses
- delta Rct % ('rmTLR1 and 2' mixture; 5 μM): 37±11%
- delta Rct % ('rmTLR1 and 2' mixture; 25 μM): 125±19%
- delta Rct % ('rmTLR1 and 2' mixture; 50 μM): 199±26%
- Rct ('rmTLR1 and 2' mixture; after 5 μM): 5688 Ω · cm^2
- Rct ('rmTLR1 and 2' mixture; after 10 μM): 7147 Ω · cm^2
- Rct ('rmTLR1 and 2' mixture; after 25 μM): 11260 Ω · cm^2
- Rct ('rmTLR1 and 2' mixture; after 50 μM): 15620 Ω · cm^2
- limit of detection ('rmTLR1 and 2' mixture; hybridized 'TLR1 and 2' sensor): 5 µM
